Reference: publication PMC11012124, “Synthesis of Novel Triazine-Based Chalcones and 8,9-dihydro-7H-pyrimido[4,5-b][1,4]diazepines as Potential Leads in the Search of Anticancer, Antibacterial and Antifungal Agents” (International Journal of Molecular Sciences, 2024)

Key:
MOLT-4 = experiment: cells; conditions: Homo sapiens, MOLT-4, 48 h
COLO 205 = experiment: cells; conditions: Homo sapiens, COLO 205, 48 h
MDA-MB-468 = experiment: cells; conditions: Homo sapiens, MDA-MB-468, 48 h
SK-MEL-2 = experiment: cells; conditions: Homo sapiens, SK-MEL-2, 48 h
OVCAR-5 = experiment: cells; conditions: Homo sapiens, OVCAR-5, 48 h
RPMI-8226 = experiment: cells; conditions: Homo sapiens, RPMI-8226, 48 h
SF-295 = experiment: cells; conditions: Homo sapiens, SF-295, 48 h
786-0 = experiment: cells; conditions: Homo sapiens, 786-0, 48 h
NCI-H460 = experiment: cells; conditions: Homo sapiens, NCI-H460, 48 h
HL-60(TB) = experiment: cells; conditions: Homo sapiens, HL-60, 48 h
KM12 = experiment: cells; conditions: Homo sapiens, KM12, 48 h
SK-OV-3 = experiment: cells; conditions: Homo sapiens, SK-OV-3, 48 h
SF-539 = experiment: cells; conditions: Homo sapiens, SF-539, 48 h
OVCAR-4 = experiment: cells; conditions: Homo sapiens, OVCAR-4, 48 h
UACC-257 = experiment: cells; conditions: Homo sapiens, UACC-257, 48 h
UO-31 = experiment: cells; conditions: Homo sapiens, UO-31, 48 h
DU-145 = experiment: cells; conditions: Homo sapiens, DU-145, 48 h
SN12C = experiment: cells; conditions: Homo sapiens, 48 h
HCT-116 = experiment: cells; conditions: Homo sapiens, HCT-116, 48 h
MCF7 = experiment: cells; conditions: Homo sapiens, MCF7, 48 h
HT29 = experiment: cells; conditions: Homo sapiens, HT-29, 48 h
MDA-MB-231/ATCC = experiment: cells; conditions: Homo sapiens, MDA-MB-231, 48 h
SNB-75 = experiment: cells; conditions: Homo sapiens, SNB-75, 48 h
SK-MEL-5 = experiment: cells; conditions: Homo sapiens, SK-MEL-5, 48 h
HOP-92 = experiment: cells; conditions: Homo sapiens, HOP-92, 48 h
U251 = experiment: cells; conditions: Homo sapiens, U-251, 48 h
T-47D = experiment: cells; conditions: Homo sapiens, T47D, 48 h
NCI-H23 = experiment: cells; conditions: Homo sapiens, NCI-H23, 48 h
NCI-H226 = experiment: cells; conditions: Homo sapiens, NCI-H226, 48 h
A549/ATCC = experiment: cells; conditions: Homo sapiens, A549, 48 h
TK-10 = experiment: cells; conditions: Homo sapiens, TK-10, 48 h
60 cancer cell lines = experiment: NCI-60 one-dose screen (10 μM); assay type: cell-based; conditions: Homo sapiens; one dose of 10 μM, mean over 60 cancer cell lines; read-out: Mean Growth Percent (MGP)
Description: Additionally, the mean of the growth percentages (MGP) of each compound against all the 60 cancer cell lines is also reported, which is used as one of the selection criteria to continue with tests at five concentration doses.

LOX IMVI = experiment: cells; conditions: Homo sapiens, 48 h
M14 = experiment: cells; conditions: Homo sapiens, M14, 48 h
NCI-H522 = experiment: cells; conditions: Homo sapiens, NCI-H522, 48 h
HCT-15 = experiment: cells; conditions: Homo sapiens, HCT-15, 48 h
A498 = experiment: cells; conditions: Homo sapiens, A498, 48 h

In the case of `CN(C)c1nc(NCCNS(=O)(=O)c2ccc(C(=O)/C=C/c3ccc(F)cc3)cc2)nc(Nc2ccc(F)cc2)n1` [24f], the GI50 (MOLT-4) is reported as 2.5 µM, the CC50 (MOLT-4; read-out: LC50) is reported as 6.49 µM and the GI50 (COLO 205) is reported as 2.38 µM. The CC50 (COLO 205; read-out: LC50) was 6.56 µM, the GI50 (MDA-MB-468) was 2.55 µM and the CC50 (MDA-MB-468; read-out: LC50) was 8.09 µM. It also gave a GI50 (SK-MEL-2) of 2.77 µM, a CC50 (SK-MEL-2; read-out: LC50) of 8.31 µM and a GI50 (OVCAR-5) of 3.39 µM. The CC50 (OVCAR-5; read-out: LC50) was 15 µM, the GI50 (RPMI-8226) was 2.42 µM and the CC50 (RPMI-8226; read-out: LC50) was 6.92 µM. The GI50 (SF-295) was 3.4 µM, the CC50 (SF-295; read-out: LC50) was 13 µM and the GI50 (786-0) was 2.56 µM. It also gave a CC50 (786-0; read-out: LC50) of 6.3 µM, a GI50 (NCI-H460) of 2.45 µM and a CC50 (NCI-H460; read-out: LC50) of 6.93 µM. The GI50 (HL-60(TB)) was 2.04 µM, the CC50 (HL-60(TB); read-out: LC50) was 6.34 µM and the GI50 (KM12) was 2 µM. It also gave a CC50 (KM12; read-out: LC50) of 4.41 µM, a GI50 (SK-OV-3) of 8.23 µM and a CC50 (SK-OV-3; read-out: LC50) of 21.6 µM. It also gave a GI50 (SF-539) of 2.52 µM, a CC50 (SF-539; read-out: LC50, SF-539, 48 h) of 6.78 µM and a GI50 (OVCAR-4) of 3.68 µM. It also gave a CC50 (OVCAR-4; read-out: LC50) of 15.6 µM, a GI50 (UACC-257) of 3.61 µM and a CC50 (UACC-257; read-out: LC50) of 15.2 µM. For the same compound, the GI50 (UO-31) was 2.9 µM, the CC50 (UO-31; read-out: LC50) was 11.9 µM and the GI50 (DU-145) was 3.94 µM. For the same compound, the CC50 (DU-145; read-out: LC50) was 14 µM, the GI50 (SN12C) was 1.7 µM and the CC50 (SN12C; read-out: LC50) was 3.36 µM. The GI50 (HCT-116) was 1.6 µM, the CC50 (HCT-116; read-out: LC50) was 3.01 µM and the GI50 (MCF7) was 1.8 µM. The CC50 (MCF7; read-out: LC50) was 3.46 µM, the GI50 (HT29) was 1.9 µM and the CC50 (HT29; read-out: LC50) was 3.65 µM. The GI50 (MDA-MB-231/ATCC) was 2.64 µM, the CC50 (MDA-MB-231/ATCC; read-out: LC50) was 8.39 µM and the GI50 (SNB-75) was 2.88 µM. The CC50 (SNB-75; read-out: LC50) was 16 µM, the GI50 (SK-MEL-5) was 2.91 µM and the CC50 (SK-MEL-5; read-out: LC50) was 11.1 µM. For the same compound, the GI50 (HOP-92) was 2.49 µM, the CC50 (HOP-92; read-out: LC50) was 6.51 µM and the GI50 (U251; U251, 48 h) was 1.99 µM. For the same compound, the CC50 (U251; read-out: LC50) was 4.41 µM, the GI50 (T-47D) was 3.02 µM and the CC50 (T-47D; read-out: LC50) was 11.7 µM. For the same compound, the GI50 (NCI-H23) was 4.17 µM, the CC50 (NCI-H23; read-out: LC50) was 15.6 µM and the GI50 (NCI-H226) was 3.41 µM. The CC50 (NCI-H226; read-out: LC50) was 16.4 µM, the GI50 (A549/ATCC) was 3.41 µM and the CC50 (A549/ATCC; read-out: LC50) was 14.2 µM. For the same compound, the GI50 (TK-10) was 4.62 µM, the CC50 (TK-10; read-out: LC50) was 16.6 µM and the activity at 10 µM (60 cancer cell lines) was -70.5%. It also gave a GI50 (LOX IMVI) of 1.66 µM, a CC50 (LOX IMVI; read-out: LC50, LOX IMVI, 48 h) of 3.07 µM and a GI50 (M14) of 2.6 µM. It also gave a CC50 (M14; read-out: LC50) of 8.28 µM, a GI50 (NCI-H522) of 2.81 µM and a CC50 (NCI-H522; read-out: LC50) of 8.9 µM. It also gave a GI50 (HCT-15) of 1.99 µM, a CC50 (HCT-15; read-out: LC50) of 4.28 µM and a GI50 (A498) of 6.21 µM. It also gave a CC50 (A498; read-out: LC50) of 19.3 µM.
